Biological target: T1, Aromatase (Homo sapiens, UniProt P11511)
T1 sequence (P11511 whole entry): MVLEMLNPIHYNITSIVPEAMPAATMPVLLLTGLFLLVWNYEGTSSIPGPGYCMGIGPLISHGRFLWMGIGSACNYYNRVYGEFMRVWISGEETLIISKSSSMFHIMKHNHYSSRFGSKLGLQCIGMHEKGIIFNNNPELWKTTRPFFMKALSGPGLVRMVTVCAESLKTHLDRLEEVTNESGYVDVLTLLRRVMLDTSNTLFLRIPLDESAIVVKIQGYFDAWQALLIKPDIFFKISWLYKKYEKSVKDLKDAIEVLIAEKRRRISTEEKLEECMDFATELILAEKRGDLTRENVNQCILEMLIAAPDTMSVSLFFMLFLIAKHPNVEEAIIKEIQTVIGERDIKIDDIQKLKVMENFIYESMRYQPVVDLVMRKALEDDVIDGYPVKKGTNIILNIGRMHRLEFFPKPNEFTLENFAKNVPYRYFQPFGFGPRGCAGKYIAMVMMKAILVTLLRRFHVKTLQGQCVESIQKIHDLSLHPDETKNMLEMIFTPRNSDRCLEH
Experiment: Inhibition of recombinant human aromatase using 7-methoxy-trifluoromethylcoumarin as substrate incubated for 30 mins by fluorescence microplate reader analysis

With `N#Cc1cccc(CN(c2ccc([N+](=O)[O-])c(-c3ccccc3)c2)n2cnnc2)c1` the IC50 was 73.2 nM.

`O=[N+]([O-])c1ccc(N(Cc2ccc(Cl)cc2)n2cnnc2)cc1Br` gave an IC50 of 9.02 nM.

With `O=[N+]([O-])c1cccc(CN(c2ccc([N+](=O)[O-])c(Br)c2)n2cnnc2)c1` the IC50 was 12.1 nM.

`O=[N+]([O-])c1ccc(N(Cc2ccccc2)n2cnnc2)cc1-c1ccccc1` gave an IC50 of 30.2 nM.

`O=[N+]([O-])c1ccc(N(Cc2cccc(C(F)(F)F)c2)n2cnnc2)cc1-c1ccccc1` was tested, and the IC50 was 17.4 nM.

With `O=[N+]([O-])c1ccc(N(Cc2cccc(C(F)(F)F)c2)n2cnnc2)cc1Br` the IC50 was 17.4 nM.

For `N#Cc1cccc(CN(c2ccc([N+](=O)[O-])c(Br)c2)n2cnnc2)c1`, the IC50 was 57.6 nM.

With `O=[N+]([O-])c1ccc(Nn2cnnc2)cc1Br` the IC50 was 90.7 nM.

In the case of `O=[N+]([O-])c1cccc(CN(c2ccc([N+](=O)[O-])c(-c3ccccc3)c2)n2cnnc2)c1`, the IC50 is reported as 19.7 nM.

With `O=[N+]([O-])c1ccc(N(Cc2ccc(C(F)(F)F)cc2)n2cnnc2)cc1-c1ccccc1` the IC50 was 14.5 nM.

`O=[N+]([O-])c1ccc(N(Cc2ccc(C(F)(F)F)cc2)n2cnnc2)cc1Br` was tested, and the IC50 was 43.6 nM.

For `O=[N+]([O-])c1ccc(N(Cc2ccccc2)n2cnnc2)cc1Br`, the IC50 was 39.8 nM.

`N#Cc1ccccc1CN(c1ccc([N+](=O)[O-])c(Br)c1)n1cnnc1` showed an IC50 of 58.8 nM.

Source: ChEMBL document CHEMBL4477276, “Synthesis and aromatase inhibitory evaluation of 4-N-nitrophenyl substituted amino-4H-1,2,4-triazole derivatives” (Bioorg Med Chem, 2016)
